Experimental data from patent publication US7897559B2, “Dermatological composition and kit containing avermectin compound for treating dermatological conditions” (priority 2000, dated 2011).

How the values were obtained:
[1] = Safety and tolerability observed in the informal trials of topical ivermectin; type: in vivo, human; details: informal clinical trial, topical application, any body locations
Description: It is known that some of the diseases, such as perioral dermatitis, the skin on the eyelids can be affected. To treat eyelids, a high concentration of the medicine should be avoided to prevent irritation of the eyes.
(§1) Examples 4 to 12 illustrate clinical effectiveness of the method of the present invention.

[2] = test system: transient acantholytic dermatitis, acne miliaris necrotica, acne varioliformis, perioral dermatitis, acneiform eruptions, acne vulgaris, seborrheic dermatitis; assay: Informal clinical trial of topical ivermectin across the dermatological conditions; type: in vivo, human
Description: In a preferred embodiment, ivermectin is used because it is readily available commercially. The concentration of ivermectin in the dermatological composition for the purpose of the present invention can be in a broad range from about 0.05% to 8% weight by volume (w/v).
The treatment method using ivermectin dermatological composition for each of these dermatological conditions is similar. Preferably, in an initial treatment of these dermatological conditions the ivermectin dermatological composition can be applied topically from one to several times daily for a period of from about one week to several weeks, to substantially control the condition and clear the lesions. The initial dosage, including frequency of the topical application, ivermectin concentration of the dermatological composition, and the length of the initial treatment period can be determined depending on a specific disease, severity of the disease, and the response of the patient to the medication. For example, acne miliaris necrotica is more difficult to treat, and it frequently requires an initial treatment of three weeks or longer. While perioral dermatitis patients can respond to ivermectin treatment rapidly, and healing of lesions can occur in less than two weeks. After the initial treatment, a maintenance dosage, that has less frequent application, and/or a dermatological composition with less concentration of ivermectin, can be used for maintaining the condition.
as §1

head lice = details: after a single topical application; cited from earlier work
[3] = oral dosage of a moderate ivermectin concentration; cited from earlier work
[4] = informal clinical trial, topical application to affected skin

Substance: ivermectin
- side effects [1]: no side effects observed in any body locations
- dermal infection of the affected area [2, 4]: controls dermal infection of the affected area
- inflammation of the affected area [2, 4]: controls inflammation of the affected area
- itching and skin irritation caused by the conditions [2, 4]: removes itching and skin irritation
- lesions [2, 4]: clears up lesions
- clinical effectiveness ([2]; lotion or cream, ivermectin concentration as low as 0.075%): clinically effective
- curative effect on head lice (head lice): absolute curative effect
- safety in human [3]: safe in human, without serious adverse side effects
